Laboratory results as given in patent publication US7381739B2, “2,4-substituted indoles and methods of use” (Roche Palo Alto LLC, priority 2002, dated 2008).

target: T1, recombinant human 5-HT6 receptor (Homo sapiens, UniProt P50406); assay: in vitro radioligand binding, [3H]LSD competition in HEK293 cell membranes; conditions: not given
T1 construct: expressed in transfected cells
Protocol: The binding activity of compounds of this invention in vitro was determined as follows. Duplicate determinations of ligand affinity are made by competing for binding of [^3H]LSD in cell membranes derived from HEK293 cells stably expressing recombinant human 5-HT6 receptor.
All determinations were made in assay buffer containing 50 mM Tris-HCl, 10 mM MgSO4, 0.5 mM EDTA, 1 mM ascorbic acid, pH 7.4 at 37° C., in a 250 microliter reaction volume. Assay tubes containing [^3H] LSD (5 nM), competing ligand, and membrane were incubated in a shaking water bath for 60 min. at 37° C., filtered onto Packard GF-B plates (pre-soaked with 0.3% PEI) using a Packard 96 well cell harvester and washed 3 times in ice cold 50 mM Tris-HCl. Bound [^3H] LSD was determined as radioactive counts per minute using Packard TopCount.
Displacement of [3H]LSD from the binding sites was quantified by fitting concentration-binding data to a 4-parameter logistic equation:
[formula] where Hill is the Hill slope, [ligand] is the concentration of competing radioligand and IC50 is the concentration of radioligand producing half-maximal specific binding of radioligand. The specific binding window is the difference between the Bmax and the basal parameters.

T1 sequence (P50406 whole entry): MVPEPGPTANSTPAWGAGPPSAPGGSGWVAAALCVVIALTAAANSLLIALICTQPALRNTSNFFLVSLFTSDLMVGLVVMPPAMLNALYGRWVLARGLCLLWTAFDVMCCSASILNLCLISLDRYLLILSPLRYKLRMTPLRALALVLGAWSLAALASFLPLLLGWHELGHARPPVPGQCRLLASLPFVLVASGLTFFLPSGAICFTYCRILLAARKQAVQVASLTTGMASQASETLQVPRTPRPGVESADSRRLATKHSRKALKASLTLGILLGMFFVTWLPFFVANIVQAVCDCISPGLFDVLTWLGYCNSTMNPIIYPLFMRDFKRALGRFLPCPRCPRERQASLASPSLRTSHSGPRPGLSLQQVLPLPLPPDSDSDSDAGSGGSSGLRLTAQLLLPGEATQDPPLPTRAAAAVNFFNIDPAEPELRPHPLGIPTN

SMILES | Ki
Cn1c(S(=O)(=O)c2ccccc2)cc2c(N3CCNCC3)cccc21 [Compound 5, 2-Benzenesulfonyl-1-methyl-4-piperazin-1-yl-1H-indole] | 200 pM
Cn1c(S(=O)(=O)c2cccc(Br)c2)cc2c(N3CCNCC3)cccc21 [Compound 14, 2-(3-Bromo-benzenesulfonyl)-1-methyl-4-piperazin-1-yl-1H-indole] | 501 pM

same assay, conditions: [3H]LSD (5 nM) displacement, membranes of HEK293 cells stably expressing recombinant human 5-HT6 receptor, pH 7.4, 37° C., 60 min; read-out: pKi (converted)

SMILES | Ki
CN1CCN(c2cccc3[nH]c(S(=O)(=O)c4ccccc4)cc23)CC1 [Compound 2, 2-Benzenesulfonyl-4-(4-methyl-piperazin-1-yl)-1H-indole] | 126 pM
CC1CN(c2cccc3[nH]c(S(=O)(=O)c4ccccc4)cc23)CC(C)N1 (stereo not drawn) [Compound 9, 2-Benzenesulfonyl-4-(3,5-dimethyl-piperazin-1-yl)-1H-indole] | 794 pM
CN1CCN(c2cccc3[nH]c(S(=O)(=O)c4ccccc4F)cc23)CC1 [Compound 12, 2-(2-Fluoro-benzenesulfonyl)-4-(4-methyl-piperazin-1-yl)-1H-indole] | 126 pM
O=S(=O)(c1ccccc1)c1cc2c(C3CCNCC3)cccc2[nH]1 [Compound 15, 2-Benzenesulfonyl-4-piperidin-4-yl-1H-indole] | 631 pM
